Assay results as given in EP0348490B1, “TREATMENT OF TYPE 2 DIABETES MELLITUS” (AMYLIN PHARMACEUTICALS, INC., priority 1988, dated 1995).
Where no end group is shown, it is not given here.

How the values were obtained:
[1] = tested on: isolated islets of Langerhans; assay: Glucose-stimulated insulin production by isolated islets of Langerhans; assay type: cell-based, rats
Procedure: The following experiments illustrate the fact that subpeptides of amylin can act to reduce the amount of insulin produced by isolated islets of Langerhans in response to a standard glucose challenge. […] All experiments were performed by known methods used in experimental practice. See, e.g., Lacey PE, and Kostianovsky M, Method for the isolation of intact islets of Langerhans from the rat pancreas. Diabetes 1967; 16:35-39.
Briefly, rats were killed, and islets of Langerhans were isolated from their pancreases. Experiments were performed either with freshly isolated islets or after overnight incubation of islets (23 h) in standard culture medium and conditions at 37°C. […]
Production of insulin is expressed as µU/islet/h. […] The integrity of the islet response was assessed by comparing the responses after stimulation of different aliquots of islets by two and ten mmol/L glucose, respectively, and the strength of the inhibitory response was judged against that induced by 1 µg/ml (650 nmol/L) somatostatin. […]
The results are shown in TABLE 5 below and all results are expressed as ± standard error of the mean (s.e.m.). The significance of differences between the means of groups is assessed by the t-test. […] In all other experimental conditions, the significance of the inhibitory effect is measured against the effect of 10 mmol/L glucose alone.

soleus muscles strips = settings: synthetic subpeptides; data not shown

## CGRP 27-37: subpeptide 27-37 of calcitonin gene related peptide, believed to affect the amylin receptor as an agonist (FVPTNVGSKAF; ends and bridges not checked; UniProt P06881 109-119, looked up, fragment)
[1]; 10 mmol/L glucose, somatostatin 1 ug/mL (650 nmol/L), varying concentrations of CGRP 27-37
  inhibition of insulin secretion compared with that seen with amylin 27-37: no significant difference
[1]; never reached significance
  trend of inhibition relative to that caused by amylin 27-37: slightly greater

## Amylin 8-37 (ATQRLANFLVHSSNNFGAILSSTNVGSNTY; Islet amyloid polypeptide; UniProt P10997 41-70, looked up, fragment) [[5]]
Soleus muscles strips
  activity in inhibiting glycogen synthesis (reducing incorporation of radioactive glucose into glycogen): significant activity was present
